What was measured:
[1] = biological target: T1, Alpha-1A adrenergic receptor (Homo sapiens, UniProt P35348); test: Alpha-1 adrenergic receptor agonist activity in rabbit ear artery; format: functional, tissue-based, Oryctolagus cuniculus; details: target entry is the homologue from another species
T1 sequence (P35348 whole entry): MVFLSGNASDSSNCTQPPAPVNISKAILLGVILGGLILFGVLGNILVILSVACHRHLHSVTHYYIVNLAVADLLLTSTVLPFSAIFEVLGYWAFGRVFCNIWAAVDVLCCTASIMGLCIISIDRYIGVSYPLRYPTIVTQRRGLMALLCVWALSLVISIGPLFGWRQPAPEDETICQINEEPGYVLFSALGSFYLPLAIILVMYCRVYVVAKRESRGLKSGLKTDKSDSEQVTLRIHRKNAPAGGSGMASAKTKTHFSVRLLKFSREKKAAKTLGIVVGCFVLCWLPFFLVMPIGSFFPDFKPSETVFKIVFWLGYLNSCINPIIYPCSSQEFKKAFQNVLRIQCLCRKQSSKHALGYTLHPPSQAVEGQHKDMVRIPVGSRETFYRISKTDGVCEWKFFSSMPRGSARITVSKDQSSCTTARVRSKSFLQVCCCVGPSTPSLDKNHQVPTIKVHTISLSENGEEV

[2] = organism: Oryctolagus cuniculus; test: Phentolamine dissociation constant was evaluated in rabbit ear artery; format: functional

Question: For `COc1ccc(OC)c2c1CCNC2`, which EC50 [1] is on record?
Answer: Its EC50 is greater than 30 µM.

Question: `COc1ccc(OC)c2c1CC(N)C2` was tested. Which EC50 [1] did it give?
Answer: The EC50 was 30 µM.

Question: How did the Kb [2] turn out when `COc1ccc(OC)c2c1CCCC(N)C2` (centres undefined) was run?
Answer: The Kb was 0.011 µM.

Question: What about the EC50 [1] of the same molecule?
Answer: Its EC50 is 5.3 µM.

Question: `COc1ccc(OC)c2c1CC1C2[C@@H]1N` (some centres undefined) was tested. Which Kb [2] did it give?
Answer: Its Kb is 0.0084 µM.

Question: And the EC50 [1]?
Answer: The EC50 was 0.34 µM.

Question: How did the EC50 [1] turn out when `COc1ccc(OC)c2c1C1CCC2[C@@H](N)C1` (some centres undefined) was run?
Answer: The EC50 was 30 µM.

Question: `COc1ccc(OC)c2c1C1CCC2[C@H](N)C1` (some centres undefined) was tested. Which EC50 [1] did it give?
Answer: Its EC50 is 30 µM.

Question: How did the Kb [2] turn out when `COc1ccc(OC)c2c1CC[C@H]1NCCCC21` (some centres undefined) was run?
Answer: Its Kb is 0.011 µM.

Question: And the EC50 [1]?
Answer: The EC50 was 0.17 µM.

Question: With `COc1ccc(OC)c(CCN)c1` as the molecule, how does the Kb [2] read?
Answer: Its Kb is 0.054 µM.

Question: And the EC50 [1]?
Answer: Its EC50 is 11 µM.

Question: How did the EC50 [1] turn out when `NC1CCc2ccccc2C1` (centres undefined) was run?
Answer: The EC50 was greater than 30 µM.

Question: What does the source list for `COc1ccc(OC)c2c1CCC(N)C2` (centres undefined)?
Answer: Kb [2]: 0.006 µM; EC50 [1]: 0.12 µM

Question: With `COc1ccc(OC)c2c1CC[C@@H]1NCCCC21` (some centres undefined) as the molecule, how does the Kb [2] read?
Answer: The Kb was 0.0147 µM.

Question: And the EC50 [1]?
Answer: The EC50 was 0.2 µM.

Question: How did the Kb [2] turn out when `COc1ccc(OC)c(C(O)C(C)N)c1` (centres undefined) [METHOXAMINE] was run?
Answer: The Kb was 0.0098 µM.

Question: And the EC50 [1]?
Answer: The EC50 was 0.72 µM.
